“Also recorded” adds a separate entry of the source. Ends that are not written are not given here.
Columns and labels:
[1] = Distribution, uptake and half-life of DNSP-11 in the brain (immunostaining); format: in vivo, rat; conditions: male, F344, rat, brain, 30 ug; 30 μg intracerebral injection
Experimental: (§1) Additional studies were carried out to determine if DNSP-11 is actively taken up into dopamine-containing neurons in vivo. A single administration of 30 μg of DNSP-11 was delivered into the rat substantia nigra. Animals were euthanized at 0.5, 1.5, 4, 24 and 48 hrs after injection to visualize distribution of DNSP-11 using antibodies raised against DNSP-11 and the ubiquitinated form of DNSP-11. DNSP-11 antibodies labelled the cytosol and neurites of neurons in the area of the substantia nigra within 30 minutes after injection. DNSP-11 was taken up by neurons in both the substantia nigra, pars reticulata (SNr) and substantia nigra, pars compacta (SNc). […] Higher power micrographs from the SNc.
(§2) To assess the distribution, uptake and degradation of DNSP-11 in the brain, young adult male F344 rats, as a test organism, received injections of 30 μg DNSP-11 in the substantia nigra, hippocampus or cortex. They were euthanized by anesthesia overdose at various time points from 30 minutes to 48 hrs later and perfused through the heart with saline followed by paraformaldehyde.
(§3) Our standard published procedures for immuncytochemical staining were used (e.g. Gash D M et al., J Comp Neurol. 1995 December 18;363(3):345-58., Grondin et al., 2002; Ai et al., 2003). A polyclonal antibody was generated against DNSP-11 in rabbits (Alpha Diagnostic International, San Antonio, Tex.). Endogenous peroxidases were inactivated by incubation with 0.2% hydrogen peroxide (H2O2) for 10 minutes and background blocked with 4% normal serum, 1% bovine serum albumin (BSA) for 1 hour. Free floating sections were incubated in primary antisera. Sections were then exposed to the appropriate biotinylated IgG (Vecto Labs, Burlingame, Calif.) for 1 hour and then incubated in avidin-biotin-peroxidase complex using Elite ABC Vectastain Kits (Vector Labs) for 1 hour. Some sections were double-labeled using procedures following our published procedures for immunocytochemical staining to identify cells with two markers (e.g. Ai et al., 2003).
(§4) Controls for immunostaining included the omission of primary antibodies and replacement of primary antibodies with normal serum of the same species.

rat brain neurons = test: as above; format: in vivo
Experimental: as §1, §2, §3, §4

[2] = system: normal young male Fischer 344 rats; test: Striatal microdialysis 28 days after intranigral DNSP-11; format: in vivo, rat
Experimental: Infusion Delivery of DNSP-11 or Vehicle: Isoflurane anesthetized (1.5-2.5%) F344 rats received 5 μl of 6 μg/μL DNSP-11 solution or citrate buffer vehicle solution in a blinded manner. Treatment was delivered to the nigral cell bodies using the same stereotaxic coordinates and protocol for solution delivery as in studies of GDNF.
Reverse Microdialysis: Reverse in vivo microdialysis was accomplished using methods and brain coordinates described by Hebert et al. (1996)J Pharmacol. Exper. Ther. 279:1181-1190. CMA 11 microdialysis probes with a 4.0 mm membrane length and 6 kDa molecular weight cut-off were placed within the rat striatum.
Prior studies with GDNF have shown robust effects on both potassium and amphetamine-evoked release 28 days after a single injection into the rat substantia nigra (Hebert et al. (1997) J. Pharm. Exp. Thera. 282: 760) indicating the functional effects of this trophic factor on dopamine signaling in the normal rat striatum. In the present experiment, 30 μg of DNSP-11 was injected into the right substantia nigra of normal young male Fischer 344 rats. Twenty-eight days after injection, in vivo microdialysis was performed in these animals to investigate dopamine neurochemistry in the ipsilateral striatum. […] Winkler et al. (1996) J. Neurosci. 16: 7206; Hebert et al. (1996) J Pharmacol Exper Ther. 279: 1181-1190 (1996).

[3] = system: mitochondria of substantia nigra and striatum; test: Mitochondrial State III respiration 28 days after bilateral intranigral DNSP-11; format: in vivo, rat; conditions: 28 days post bilateral intranigral 30 μg
Experimental: Six five-month-old male F344 rats received bilateral intranigral injections of 30 μg DNSP-11. Six age and sex-matched controls received injections of the same volume of vehicle (citrate buffer). Twenty-eight days after test material administration, the animals were euthanized by CO2 anesthesia and the brain samples rapidly dissected. The striatum and substantia nigra were isolated quickly and carefully using a rat brain matrix for F344 rats.
Mitochondrial respiration was assessed using a miniature Clark-type electrode, in a sealed, thermostatic and continuously stirred chamber. Mitochondria were added to the chamber to yield a final protein concentration of 1 mg/ml. The substrate concentrations were 5.0 mM/2.5 mM for glutamate/malate and pyruvate/malate or 10 mM for succinate+[…] rotenone or α-glycerophosphate. State 3 respiration was initiated by the addition of 150 ηmols ADP. The respiratory control ratio was calculated as respiration in the presence of ADP (state 3)/respiration in absence of ADP (state 4). ADP/0 ratios were determined by dividing the amount of ADP phosphorylated during State III respiration by the amount of oxygen consumed. NAD-linked substrates, e.g. glutamate and pyruvate, utilize complexes I, III, IV in their oxidation, succinate utilizes complexes II, III, IV and α-glycerophosphate ultilizes III, IV. […]

[4] = 30 μg bolus into mid-substantia nigra
[5] = ipsilateral striatum, 28 days after 30 μg into right substantia nigra

Substance: PPEAPAEDRSL-NH2 [DNSP-11, PPEAPAEDRSL-amide]
- half-life [1]: < 24 h
- spread in the anterior-posterior plane (rat brain neurons; [4]): ~3 mm
- spread in the medial-lateral plane (rat brain neurons; [4]): ≤ 2 mm
- time to uptake by neurons after injection (rat brain neurons; 30 μg injected into rat substantia nigra (all brain areas evaluated)): ≤ 30 min
- immunohistochemical staining for DNSP-11 (rat brain neurons; 3 hrs after injection into substantia nigra): diminished
- immunohistochemical staining for DNSP-11 (rat brain neurons; 48 hours post peptide administration): no evidence of DNSP-11
- uptake into neurons of striatum, hippocampus and cortex (rat brain neurons; stereotaxic injections of 30 μg): Uptake was observed into neurons
- Basal DA ([2]; 28 days after delivery, vehicle 26.0±2.7 nM): 45.8 ± 7.7 nM
- Basal concentrations of HVA ([2]; 28 days after delivery, vehicle 2419±251 nM): 4.516 ± 0.502 µM
- Basal concentrations of DOPAC ([2]; 28 days after delivery, vehicle 3355±338 nM): 6.544 ± 0.836 µM
- resting levels of HVA, increase vs controls [2, 5]: over 100%
- resting levels of dopamine, increase vs controls [2, 5]: over 100%
- State III oxygen consumption / oxidative phosphorylation vs vehicle ([3]; striatum): reached statistical significance; also recorded: increased
- State III oxygen consumption / oxidative phosphorylation vs vehicle ([3]; substantia nigra, n=2): trend towards an increase; also recorded: increased
